Here are results for one compound from paper PMC8662647, “Two Functional Epithelial Sodium Channel Isoforms Are Present in Rodents despite Pronounced Evolutionary Pseudogenization and Exon Fusion” (Molecular Biology and Evolution, 2021).

One experiment deals with T1, guinea pig δβγ-ENaC (Cavia porcellus, UniProt H0UT09+H0VJS1+H0VNV9).
T1 construct: gene Scnn1d; heterotrimer in Xenopus laevis oocytes; δ with fused exons 11/12
T1 sequence (H0VJS1 1-618): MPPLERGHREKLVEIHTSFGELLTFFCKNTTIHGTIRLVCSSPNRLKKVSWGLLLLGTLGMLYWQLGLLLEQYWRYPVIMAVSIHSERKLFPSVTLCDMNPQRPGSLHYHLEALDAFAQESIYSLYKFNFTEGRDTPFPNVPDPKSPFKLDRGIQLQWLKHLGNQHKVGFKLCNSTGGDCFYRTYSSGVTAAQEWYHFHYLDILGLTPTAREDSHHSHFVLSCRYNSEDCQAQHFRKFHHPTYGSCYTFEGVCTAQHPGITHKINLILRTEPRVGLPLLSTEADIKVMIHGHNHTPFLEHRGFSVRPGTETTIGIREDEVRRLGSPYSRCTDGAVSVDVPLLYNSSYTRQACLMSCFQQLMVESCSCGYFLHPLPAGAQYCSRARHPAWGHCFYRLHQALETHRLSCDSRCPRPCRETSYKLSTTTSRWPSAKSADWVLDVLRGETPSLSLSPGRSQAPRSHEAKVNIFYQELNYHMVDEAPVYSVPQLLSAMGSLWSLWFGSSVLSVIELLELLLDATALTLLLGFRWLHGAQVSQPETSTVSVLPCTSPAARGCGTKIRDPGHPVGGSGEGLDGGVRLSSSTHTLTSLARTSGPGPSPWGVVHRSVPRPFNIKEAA
T1 sequence (H0VNV9 1-640): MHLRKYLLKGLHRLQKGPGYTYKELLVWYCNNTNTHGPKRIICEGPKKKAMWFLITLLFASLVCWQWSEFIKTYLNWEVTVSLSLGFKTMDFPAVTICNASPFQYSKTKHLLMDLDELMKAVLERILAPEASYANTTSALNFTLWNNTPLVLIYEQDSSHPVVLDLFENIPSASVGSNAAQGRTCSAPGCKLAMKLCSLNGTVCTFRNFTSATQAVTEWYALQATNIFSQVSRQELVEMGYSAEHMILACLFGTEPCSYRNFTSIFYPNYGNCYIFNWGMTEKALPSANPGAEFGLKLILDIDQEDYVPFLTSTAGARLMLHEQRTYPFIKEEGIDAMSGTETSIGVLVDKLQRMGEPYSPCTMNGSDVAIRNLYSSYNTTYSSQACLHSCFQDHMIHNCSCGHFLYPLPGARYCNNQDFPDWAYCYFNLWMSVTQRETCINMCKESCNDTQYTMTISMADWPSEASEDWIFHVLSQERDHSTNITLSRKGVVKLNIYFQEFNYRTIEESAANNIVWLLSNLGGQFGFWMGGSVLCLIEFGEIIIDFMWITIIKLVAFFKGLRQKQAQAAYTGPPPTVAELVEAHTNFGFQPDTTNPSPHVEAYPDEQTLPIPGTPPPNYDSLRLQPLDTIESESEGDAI
T1 sequence (H0UT09 1-653): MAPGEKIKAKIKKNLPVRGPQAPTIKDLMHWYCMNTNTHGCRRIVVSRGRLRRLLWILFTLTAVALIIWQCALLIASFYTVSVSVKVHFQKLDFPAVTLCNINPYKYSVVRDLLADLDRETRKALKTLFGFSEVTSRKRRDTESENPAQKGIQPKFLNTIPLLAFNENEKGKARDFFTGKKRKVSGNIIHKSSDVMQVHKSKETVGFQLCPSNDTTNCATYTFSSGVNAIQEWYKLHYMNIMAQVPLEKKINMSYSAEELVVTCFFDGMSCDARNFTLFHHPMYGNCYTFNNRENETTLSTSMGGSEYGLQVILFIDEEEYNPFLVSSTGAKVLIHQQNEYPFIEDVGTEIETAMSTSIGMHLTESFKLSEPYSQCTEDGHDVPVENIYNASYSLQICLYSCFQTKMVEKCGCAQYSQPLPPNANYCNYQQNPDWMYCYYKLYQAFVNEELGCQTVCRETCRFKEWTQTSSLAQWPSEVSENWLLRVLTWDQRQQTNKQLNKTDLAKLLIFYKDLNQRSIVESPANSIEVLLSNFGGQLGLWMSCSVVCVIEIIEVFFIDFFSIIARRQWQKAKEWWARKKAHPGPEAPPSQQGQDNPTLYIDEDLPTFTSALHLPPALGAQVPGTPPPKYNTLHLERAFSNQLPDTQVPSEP
Description: two-electrode voltage clamp, Xenopus oocytes, concentration-response. Format: cell-based. Conditions: channel block; -60 mV; ORS 90 mM NaCl, pH 7.4, room temperature.

The target in another experiment is T2, guinea pig αβγ-ENaC (Cavia porcellus, UniProt B8QP44+H0UT09+H0VNV9).
T2 construct: gene SCNN1A; heterotrimer in Xenopus laevis oocytes; printed GenBank ids are 5'RACE products
T2 sequence (B8QP44 1-656): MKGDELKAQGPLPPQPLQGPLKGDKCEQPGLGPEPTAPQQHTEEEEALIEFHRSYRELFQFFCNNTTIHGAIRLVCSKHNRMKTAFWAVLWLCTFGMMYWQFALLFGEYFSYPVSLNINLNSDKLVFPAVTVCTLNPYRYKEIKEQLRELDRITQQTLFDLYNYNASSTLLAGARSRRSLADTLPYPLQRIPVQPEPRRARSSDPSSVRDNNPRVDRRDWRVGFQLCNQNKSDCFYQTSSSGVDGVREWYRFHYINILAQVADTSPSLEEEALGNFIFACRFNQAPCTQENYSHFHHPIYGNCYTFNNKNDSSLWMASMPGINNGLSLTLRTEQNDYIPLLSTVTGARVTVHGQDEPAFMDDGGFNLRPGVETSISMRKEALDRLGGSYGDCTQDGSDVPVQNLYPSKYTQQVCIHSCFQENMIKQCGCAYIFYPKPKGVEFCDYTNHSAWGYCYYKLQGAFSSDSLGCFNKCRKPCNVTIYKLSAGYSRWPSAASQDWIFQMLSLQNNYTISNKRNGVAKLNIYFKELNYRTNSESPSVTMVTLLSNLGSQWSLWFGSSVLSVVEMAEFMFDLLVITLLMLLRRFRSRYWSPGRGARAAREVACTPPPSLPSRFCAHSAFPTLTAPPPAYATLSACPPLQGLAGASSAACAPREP
T2 sequence (H0VNV9 1-640): T1 sequence (H0VNV9 1-640)
T2 sequence (H0UT09 1-653): T1 sequence (H0UT09 1-653)
Described as above. It counts as cell-based.

Regarding `N=C(N)NC(=O)c1nc(Cl)c(N)nc1N` [amiloride], the IC50 against guinea pig δβγ-ENaC worked out at 0.24 ± 0.05 µM; against guinea pig αβγ-ENaC, 0.15 ± 0.02 µM.
